Results on nine compounds are retold here after patent publication US7517987B2, “Caspase inhibitors and uses thereof” (Vertex Pharmaceutical Incorporated, priority 1999, dated 2009).

Assay [1] deals with Jurkat E6.1 cells. Description: Anti-Fas induced apoptosis assay. The class given is cell-based. To be noted: Homo sapiens, anti-Fas antibody CH-11 10 ng/ml, 16-18 hrs, DNA fragmentation, OD405 nm. An excerpt:
Cellular apoptosis may be induced by the binding of Fas ligand (FasL) to its receptor, CD95 (Fas). CD95 is one of a family of related receptors, known as death receptors, which can trigger apoptosis in cells via activation of the caspase enzyme cascade. The process is initiated by the binding of the adapter molecule FADD/MORT-1 to the cytoplasmic domain of the CD-95 receptor-ligand complex. Caspase-8 then binds FADD and becomes activated, initiating a cascade of events that involve the activation of downstream caspases and subsequent cellular apoptosis. Apoptosis can also be induced in cells expressing CD95 eg the Jurkat E6.1 T cell lymphoma cell line, using an antibody, rather than FasL, to crosslink the cell surface CD95. Anti-Fas-induced apoptosis is also triggered via the activation of caspase-8. This provides the basis of a cell based assay to screen compounds for inhibition of the caspase-8-mediated apoptotic pathway.
Jurkat E6.1 cells are cultured in complete medium consisting of RPMI-1640 (Sigma No)+10% foetal calf serum (Gibco BRL No. 10099-141)+2 mM L-glutamine (Sigma No. G-7513). The cells are harvested in log phase of growth. 100 ml Cells at 5-8×10^5 cells/ml are transferred to sterile 50 ml Falcon centrifuge tubes and centrifuged for 5 minutes at 100×g at room temperature. The supernatant is removed and the combined cell pellets resuspended in 25 ml of complete medium. The cells are counted and the density adjusted to 2×10^6cells/ml with complete medium.
The test compound is dissolved in dimethyl sulphoxide (DMSO)(Sigma No. D-2650) to give a 100 mM stock solution. This is diluted to 400 μM in complete medium, then serially diluted in a 96-well plate prior to addition to the cell assay plate.
100 μl of the cell suspension ([…]) is added to each well of a sterile 96-well round-bottomed cluster plate (Costar No. 3790). 501l of compound solution at the appropriate dilution and 50 μl of anti-Fas antibody, clone CH-11 (Kamiya No.MC-060) at a final concentration of 10 ng/ml, are added to the wells. Control wells are set up minus antibody and minus compound but with a serial dilution of DMSO as vehicle control. The plates are incubated for 16-18 hrs at 37° C. in 5% CO2 and 95% humidity.
Apoptosis of the cells is measured by the quantitation of DNA fragmentation using a ‘Cell Death Detection Assay’ from Boehringer-Mannheim, No. 1544 675. After incubation for 16-18 hrs the assay plates are centrifuged at 100×g at room temperature for 5 minutes. 150 μl of the supernatant are removed and replaced by 150 μl of fresh complete medium. The cells are then harvested and 200 μl of the lysis buffer supplied in the assay kit are added to each well. The cells are triturated to ensure complete lysis and incubated for 30 minutes at 4° C. The plates are then centrifuged at 1900×g for 10 minutes and the supernatants diluted 1:20 in the incubation buffer provided. 100 μl of this solution is then assayed exactly according to the manufacturer's instructions supplied with the kit. OD405 nm is measured 20 minutes after addition of the final substrate in a SPECTRAmax Plus plate reader (Molecular Devices). OD405 nm is plotted versus compound concentration and the IC50 values for the compounds are calculated using the curve fitting program SOFTmax Pro (Molecular Devices) using the four parameter fit option.

Assay [2] deals with T1, Caspase-1 (Homo sapiens, UniProt P29466).
T1 sequence (P29466 120-297 limits assumed): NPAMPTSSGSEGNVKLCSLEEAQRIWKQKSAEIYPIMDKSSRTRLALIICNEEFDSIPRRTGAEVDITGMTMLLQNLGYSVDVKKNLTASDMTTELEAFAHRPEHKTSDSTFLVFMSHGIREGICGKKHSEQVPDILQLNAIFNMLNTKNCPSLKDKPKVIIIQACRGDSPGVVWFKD
T1 sequence (P29466 317-404 limits assumed): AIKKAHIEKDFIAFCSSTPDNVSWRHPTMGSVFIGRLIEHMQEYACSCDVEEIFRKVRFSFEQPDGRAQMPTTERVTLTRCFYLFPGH
The assay can be described thus: Caspase-1 enzyme assay, cleavage of fluorogenic substrate. The class given is biochemical. The conditions noted are these: second order rate constant of enzyme inactivation; substrate Acetyl-Tyr-Val-Ala-Asp-amino-4-methylcoumarin. The text has this: (§1) The assays for caspase inhibition are based on the cleavage of a fluorogenic substrate by recombinant, purified human Caspases-1, -3, -7 or -8. The assays are run in essentially the same way as those reported by Garcia-Calvo et al. (J. Biol. Chem. 273 (1998), 32608-32613), using a substrate specific for each enzyme. The substrate for Caspase-1 is Acetyl-Tyr-Val-Ala-Asp-amino-4-methylcoumarin. The substrate for Caspases-3, -7 and -8 is Acetyl-Asp-Glu-val-Asp-amino-4-methylcoumarin.
(§2) The observed rate of enzyme inactivation at a particular inhibitor concentration, kobs, is computed by direct fits of the data to the equation derived by Thornberry et al. (Biochemistry 33 (1994), 3943-3939) using a nonlinear least-squares analysis computer program (PRISM 2.0; GraphPad software). To obtain the second order rate constant, kinact, kobs values are plotted against their respective inhibitor concentrations and kinact values are subsequently calculated by computerized linear regression.

Assay [3] has as its target T2, Caspase-3 (Homo sapiens, UniProt P42574).
T2 sequence (P42574 29-175 limits assumed): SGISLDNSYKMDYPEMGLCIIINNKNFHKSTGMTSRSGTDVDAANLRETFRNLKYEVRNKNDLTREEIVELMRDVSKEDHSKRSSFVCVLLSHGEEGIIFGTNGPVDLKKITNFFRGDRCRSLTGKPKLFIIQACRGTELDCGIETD
T2 sequence (P42574 176-277 limits assumed): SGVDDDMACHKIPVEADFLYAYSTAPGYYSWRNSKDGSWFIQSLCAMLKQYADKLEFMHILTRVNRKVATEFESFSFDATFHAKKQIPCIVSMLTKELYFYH
The assay can be described thus: Caspase-3 enzyme assay, cleavage of fluorogenic substrate. The class given is biochemical. The conditions noted are these: second order rate constant of enzyme inactivation; substrate Acetyl-Asp-Glu-val-Asp-amino-4-methylcoumarin.
Source text: as §1, §2

In assay [4] the target is Caspase-8 (Homo sapiens, UniProt Q14790). The assay can be described thus: Caspase-8 enzyme assay, cleavage of fluorogenic substrate. In kind it is biochemical. To be noted: second order rate constant of enzyme inactivation; substrate Acetyl-Asp-Glu-val-Asp-amino-4-methylcoumarin.
Chain of Caspase-8 (Q14790 217-374 limits assumed): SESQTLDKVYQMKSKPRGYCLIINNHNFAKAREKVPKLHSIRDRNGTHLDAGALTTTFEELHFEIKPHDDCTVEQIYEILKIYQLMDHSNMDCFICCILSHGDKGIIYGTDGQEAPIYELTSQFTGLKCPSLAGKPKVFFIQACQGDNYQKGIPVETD
Chain of Caspase-8 (Q14790 385-479 limits assumed): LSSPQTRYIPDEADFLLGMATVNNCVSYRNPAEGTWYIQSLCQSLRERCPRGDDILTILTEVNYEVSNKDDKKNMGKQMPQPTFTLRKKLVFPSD
Source text: as §1, §2

In assay [5] the target is T3, Caspase-7 (Homo sapiens, UniProt P55210).
T3 sequence (P55210 24-198 limits assumed): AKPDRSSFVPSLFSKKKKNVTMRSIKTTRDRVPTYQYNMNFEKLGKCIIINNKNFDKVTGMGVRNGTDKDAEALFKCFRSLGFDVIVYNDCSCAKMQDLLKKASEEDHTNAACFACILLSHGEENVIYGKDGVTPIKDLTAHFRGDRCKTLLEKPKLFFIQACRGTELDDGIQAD
T3 sequence (P55210 207-303 limits assumed): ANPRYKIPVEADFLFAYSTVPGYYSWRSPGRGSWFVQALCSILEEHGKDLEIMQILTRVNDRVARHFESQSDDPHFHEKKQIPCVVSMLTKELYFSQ
Description: Caspase-7 enzyme assay, cleavage of fluorogenic substrate. The class given is biochemical. To be noted: second order rate constant of enzyme inactivation; substrate Acetyl-Asp-Glu-val-Asp-amino-4-methylcoumarin.
Source text: as §1, §2

For assay [6], the system named is IL-1β secretion from peripheral blood mononuclear cells (PBMC). The assay can be described thus: Inhibition of IL-1β secretion from mixed population of PBMC. The class given is cell-based. To be noted: Homo sapiens, LPS 50 ng/ml, 16-18 h, mature IL-1β in supernatant. The protocol:
Processing of pre-IL-1β by caspase-1 can be measured in cell culture using a variety of cell sources. Human PBMC obtained from healthy donors provides a mixed population of lymphocyte and mononuclear cells that produce a spectrum of interleukins and cytokines in response to many classes of physiological stimulators.
The test compound is dissolved in dimethyl sulfoxide (DMSO,Sigma #D-2650) to give a 100 mM stock solution. This is diluted in complete medium consisting of RPMI containing 10% heat inactivated FCS (Gibco BRL #10099-141), 2 mM L-Glutamine (Sigma, #G-7513), 100U penicillin and 100 μg/ml streptomycin (Sigma #P-7539). The final concentration range of test compound is from 100 μM down to 6 nM over eight dilution steps. The highest concentration of test compound is equivalent to 0.1% DMSO in the assay.
Human PBMC are isolated from Buffy Coats obtained from the blood bank using centrifugation on Ficoll-Paque leukocyte separation medium (Amersham, #17-1440-O2) and the cellular assay is performed in a sterile 96 well flat-bottomed plate (Nunc). Each well contains 100 μl of the cell suspension, 1×10^5 cells, 50 μl of compound dilutions and 50 μl of LPS (Sigma #L-3012) at 50 ng/ml final concentration. Controls consist of cells ± LPS stimulation and a serial dilution of DMSO diluted in the same way as compound. The plates are incubated for 16-18 h at 37° C. in 5% CO2 & 95% humidity atmosphere.
After 16-18 h the supernatants are harvested after centrifuging the plates at 100×g at 18° C. for 15 min and assayed for their IL-1β content. Measurement of mature IL-1β in the supernatant is performed using the Quantikine kits (R&D Systems) according to manufacturer's instructions. Mature IL-1β levels of about 600-1500 pg/ml are observed for PBMCs in positive control wells.
The inhibitory potency of the compounds can be represented by an IC50 value, which is the concentration of inhibitor at which 50% of the mature IL-1β is detected in the supernatant as compared to the positive controls.

Take `CC(C)[C@@H](C(=O)NC(CC(=O)O)C(=O)CF)N1Cc2ccccc2N(Cc2cccc(Cl)c2)C1=O` (stereo partly drawn) [Compound 1D-1, 5-Fluoro-4-oxo-3-[(2S)-2-[1-(3-chlorobenzyl)-2-oxo-1,4-dihydro-2H-quinazolin-3-yl]-3-methyl-butyrylamino]-pentanoic acid]: the IC50 in assay [1] is 0.02 µM. Besides, the Kinact in assay [2] stood at 107000 M⁻¹ s⁻¹; in assay [3] it was 67000 M⁻¹ s⁻¹. In assay [4], the “Caspase-8 Kinact” value turned out to be 77000 M⁻¹ s⁻¹.

As to `CC[C@@H](C(=O)NC(CC(=O)O)C(=O)CF)n1cnccc1=O` (stereo partly drawn) [Compound 1G-1, 5-Fluoro-4-oxo-3-[(2S)-2-(6-oxo-6H-pyrimidin-1-yl)-butyrylamino]-pentanoic acid], the figures for the IC50 in assay [1] and in assay [6] were 0.02 µM and 0.6 µM, respectively. Also, in assay [5], the “Caspase-7 Kinact” value amounted to 147000 M⁻¹ s⁻¹. Further, the Kinact in assay [2] is 307000 M⁻¹ s⁻¹; in assay [3], 420000 M⁻¹ s⁻¹. Besides, the “Caspase-8 Kinact” value in assay [4] was 68500 M⁻¹ s⁻¹.

In the case of `Cc1cccc(=O)n1CC(=O)NC(CC(=O)O)C(=O)CF` (stereo not drawn) [Compound 1A-3, 5-Fluoro-3-[2-(6-methyl-2-oxo-2H-pyridin-1-yl)-acetylamino]-4-oxo-pentanoic acid], the IC50 in assay [1] worked out at 0.21 µM. In addition, the Kinact was determined as 36000 M⁻¹ s⁻¹ in assay [2] and 51000 M⁻¹ s⁻¹ in assay [3]. Besides, the “Caspase-8 Kinact” value in assay [4] worked out at 6750 M⁻¹ s⁻¹.

Turning to `O=C(O)CC(NC(=O)Cn1ccc2ccccc2c1=O)C(=O)CF` (stereo not drawn) [Compound 1C-1, 5-Fluoro-4-oxo-3-[2-(1-oxo-1H-isoquinolin-2-yl)-acetylamino]-pentanoic acid], the values for the IC50 in assay [1] and in assay [6] were 0.06 µM and 2.9 µM, respectively. Besides, the “Caspase-7 Kinact” value in assay [5] is 26000 M⁻¹ s⁻¹. The Kinact in assay [2] turned out to be 248000 M⁻¹ s⁻¹; in assay [3] it was 130000 M⁻¹ s⁻¹. The “Caspase-8 Kinact” value in assay [4] was found to be 27000 M⁻¹ s⁻¹.

As to `C[C@@H](C(=O)NC(CC(=O)O)C(=O)CF)N1C(=O)c2ccccc2C1=O` (stereo partly drawn) [Compound 1F-3, 5-Fluoro-4-oxo-3-[(2S)-2-(1,3-dioxo-1,3-dihydro-isoindol-2-yl)-propionylamino]-pentanoic acid], the IC50 in assay [1] amounted to 0.03 µM; in assay [6] it was 4 µM. Also, the Kinact was found to be 115000 M⁻¹ s⁻¹ in assay [2] and 220000 M⁻¹ s⁻¹ in assay [3]. In assay [4], the “Caspase-8 Kinact” value was determined as 15500 M⁻¹ s⁻¹.

`O=C(O)CC(NC(=O)Cn1ccc(-c2ccccc2)cc1=O)C(=O)CF` (stereo not drawn) [Compound 1A-4, 5-Fluoro-3-[2-(4-phenyl-2-oxo-2H-pyridin-1-yl)-acetylamino]-4-oxo-pentanoic acid]: inhibition in assay [1] was half-maximal at 0.65 µM (IC50). The compound further had a Kinact in assay [2] of 40000 M⁻¹ s⁻¹. Besides, the “Caspase-8 Kinact” value in assay [4] came out at 13500 M⁻¹ s⁻¹.

On to `CCC[C@@H](C(=O)NC(CC(=O)O)C(=O)CF)n1cnc2ccccc2c1=O` (stereo partly drawn) [Compound 1C-11, 5-Fluoro-4-oxo-3-[(2S)-2-(4-oxo-4H-quinazolin-3-yl)-pentanoylamino]-pentanoic acid], for which the IC50 worked out at 0.02 µM in assay [1] and 0.4 µM in assay [6]. The Kinact in assay [2] is 419000 M⁻¹ s⁻¹; in assay [3], 185000 M⁻¹ s⁻¹. In addition, in assay [4], the “Caspase-8 Kinact” value was found to be 72500 M⁻¹ s⁻¹.

For `O=C(O)CC(NC(=O)Cn1cnc2sccc2c1=O)C(=O)CF` (stereo not drawn) [Compound 1E-1, 5-Fluoro-4-oxo-3-[2-(4-oxo-4H-thieno[2,3-d]pyrimidin-3-yl)-acetylamino]-pentanoic acid], the IC50 in assay [1] is 0.07 µM; in assay [6], 10 µM. Further, the Kinact came to 46000 M⁻¹ s⁻¹ in assay [2] and 64000 M⁻¹ s⁻¹ in assay [3]. The “Caspase-8 Kinact” value in assay [4] amounted to 13500 M⁻¹ s⁻¹.

In assay [1], `C[C@@H](C(=O)NC(CC(=O)O)C(=O)CF)n1c(=O)ccc2ccccc21` (stereo partly drawn) [Compound 1B-1, 5-Fluoro-4-oxo-3-[(S)-2-(2-oxo-2H-quinolin-1-yl)-propionylamino]-pentanoic acid] gave an IC50 of 0.14 µM. The Kinact came to 47000 M⁻¹ s⁻¹ in assay [2] and 24000 M⁻¹ s⁻¹ in assay [3]. In addition, in assay [4], the “Caspase-8 Kinact” value was 12000 M⁻¹ s⁻¹.
